# Test results as given in patent US8110573B2, “Pyrazole compounds that modulate the activity of CDK, GSK and aurora kinases” (Astex Therapeutics Limited, priority 2004, dated 2012).
# pIC50: −log10 of the molar value.
# Experiments:
# CDK1/CyclinB = molecular target: T1, CDK1/CyclinB (Homo sapiens, UniProt P06493); assay: Activated CDK1/CyclinB kinase inhibitory activity assay; format: biochemical
# T1 construct: purchased Upstate Discovery
# Experimental: (§1) The reaction is allowed to proceed for 2 to 4 hours before being stopped with an excess of ortho-phosphoric acid (5 μl at 2%). γ^33P-ATP which remains unincorporated into the histone H1 is separated from phosphorylated histone H1 on a Millipore MAPH filter plate. The wells of the MAPH plate are wetted with 0.5% orthophosphoric acid, and then the results of the reaction are filtered with a Millipore vacuum filtration unit through the wells. Following filtration, the residue is washed twice with 200 μl of 0.5% orthophosphoric acid. Once the filters have dried, 20 μl of Microscint 20 scintillant is added, and then counted on a Packard Topcount for 30 seconds.
# CDK1/CyclinB assay is identical to the CDK2/CyclinA above except that CDK1/CyclinB (Upstate Discovery) is used and the enzyme is diluted to 6.25 nM.
# CDK2/CyclinA = CDK2/CyclinA (Homo sapiens, UniProt P24941); assay: Activated CDK2/CyclinA kinase inhibitory activity assay; format: biochemical
# Experimental: as §1
# [1] = Salt stability at 40° C. 75% RH followed by XRPD; format: physicochemical; details: 40° C. and 75% RH over the period of 1-2 month
# Experimental: Approximately 15 mg of samples for the stability study were gently ground by marble mortar and transferred to a Petri dish in a thin layer. Samples were then placed in sealed containers containing saturated NaCl solution with an excess of undissolved NaCl. […] Samples were analysed by X-ray powder diffraction (XRPD) in regular intervals. Samples for XRPD data collection were loaded into crystallographic capillary (from Hampton Research, made of Quartz, diameter=0.4 mm). […] 2D Images were collected while spinning φ axis with a detector to crystal distance of 250 mm. Data collection was controlled by CrystalClear software and 2D images were converted to 1D plot (2θ vs. Intensity) by Datasqueeze (intensity averaged over the azimuthal angle 0<χ<360° for 2θ range 3-30° in 0.01° steps).
# T1 sequence (P06493 whole entry): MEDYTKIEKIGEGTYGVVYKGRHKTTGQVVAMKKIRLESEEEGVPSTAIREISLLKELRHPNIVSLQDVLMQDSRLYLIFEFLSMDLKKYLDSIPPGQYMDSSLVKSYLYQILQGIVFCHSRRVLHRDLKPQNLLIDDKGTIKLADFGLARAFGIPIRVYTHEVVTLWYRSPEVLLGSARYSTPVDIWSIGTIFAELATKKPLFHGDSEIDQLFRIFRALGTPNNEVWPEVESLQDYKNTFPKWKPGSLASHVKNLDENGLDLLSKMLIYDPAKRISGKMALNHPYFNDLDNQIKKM
# T1 sequence (P14635 whole entry partner): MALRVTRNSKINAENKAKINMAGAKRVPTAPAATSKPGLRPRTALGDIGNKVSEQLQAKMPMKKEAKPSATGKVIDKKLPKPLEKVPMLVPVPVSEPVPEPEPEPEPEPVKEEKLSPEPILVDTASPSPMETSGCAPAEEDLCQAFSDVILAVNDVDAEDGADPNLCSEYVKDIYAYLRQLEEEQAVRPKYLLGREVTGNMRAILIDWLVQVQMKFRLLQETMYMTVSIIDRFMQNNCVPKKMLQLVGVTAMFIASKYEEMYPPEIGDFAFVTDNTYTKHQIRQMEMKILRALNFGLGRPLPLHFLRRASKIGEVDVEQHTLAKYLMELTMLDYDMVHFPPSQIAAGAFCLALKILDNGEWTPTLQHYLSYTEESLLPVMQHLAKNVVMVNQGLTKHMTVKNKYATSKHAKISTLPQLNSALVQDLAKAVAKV
Compound,pIC50 (CDK1/CyclinB),pIC50 (CDK2/CyclinA),change of XRPD pattern on storage [1]
"COc1ccc(C#N)cc1C(=O)Nc1c[nH]nc1-c1nc2cc(CN3CCOCC3)ccc2[nH]1 [Example 1, 5-cyano-2-methoxy-N-[3-(5-morpholin-4-ylmethyl-1H-benzoimidazol-2-yl)-1H-pyrazol-4-yl]-benzamide]",> 6.00,> 6.00,
"N#CCC(=O)Nc1c[nH]nc1-c1nc2cc(CN3CCOCC3)ccc2[nH]1 [Example 3, 2-cyano-N-[3-(5-morpholin-4-ylmethyl-1H-benzoimidaxol-2-yl)-1H-pyrazol-4-yl]-acetamide]",> 5.00,,
O=C(Nc1c[nH]nc1-c1nc2cc(CN3CCOCC3)ccc2[nH]1)NN1CCCC1 [Example 30],,> 6.00,
CS(=O)(=O)CCNC(=O)Nc1c[nH]nc1-c1nc2cc(CN3CCOCC3)ccc2[nH]1 [Example 33],> 4.30,,
O=C(Nc1c[nH]nc1-c1nc2cc(CN3CCOCC3)ccc2[nH]1)C1CCOC1 (stereo not drawn) [Example 9],> 5.00,,
"COc1ccc(Cl)cc1C(=O)Nc1c[nH]nc1-c1nc2cc(CN3CCN(C)CC3)ccc2[nH]1 [Example 22, 5-chloro-2-methoxy-N-{3-[5-(4-methyl-piperazin-1-ylmethyl)-1H-benzoimidazol-2-yl]-1H-pyrazol-4-yl}-benzamide]",> 6.00,> 6.00,
O=C(Nc1c[nH]nc1-c1nc2cc(CN3CCOCC3)ccc2[nH]1)N1Cc2ccccc2C1 [Example 28],> 5.00,,
Cn1cccc(NC(=O)Nc2c[nH]nc2-c2nc3cc(CN4CCOCC4)ccc3[nH]2)c1=O [Example 39],> 5.00,,
O=C(Nc1c[nH]nc1-c1nc2cc(CN3CCOCC3)ccc2[nH]1)NC1CCOCC1 [Example 27],> 4.30,,
O=C(Nc1c[nH]nc1-c1nc2cc(CN3CCOCC3)ccc2[nH]1)NN1CCOCC1 [Example 32],> 5.00,> 6.00,
"N#CC(C(=O)Nc1c[nH]nc1-c1nc2cc(CN3CCOCC3)ccc2[nH]1)C1CC1 (stereo not drawn) [Example 4, 2-Cyano-2-cyclopropyl-N-[3-(5-morpholin-4-ylmethyl-1H-benzoimidazol-2-yl)-1H-pyrazol-4-yl]-acetamide]",> 6.00,,
O=C(NCc1ccco1)Nc1c[nH]nc1-c1nc2cc(CN3CCOCC3)ccc2[nH]1 [Example 52],> 5.00,,
O=C(NCC1CCOCC1)Nc1c[nH]nc1-c1nc2cc(CN3CCOCC3)ccc2[nH]1 [Example 26],> 4.30,,
"COc1cc2nc(-c3n[nH]cc3NC(=O)C3CCCN(C)C3)[nH]c2cc1OC (racemic) [Example 17, N-[3-(5,6-dimethoxy-H-benzimidazol-2-yl)-1H-pyrazol-4-yl]-rac-1-methyl-piperidine 3-carboxamide]",> 5.00,,
O=C(Nc1c[nH]nc1-c1nc2cc(CN3CCOCC3)ccc2[nH]1)[C@@H]1CCCO1 [Example 13],> 6.00,,
O=C(NCC1CC1)Nc1c[nH]nc1-c1nc2cc(CN3CCOCC3)ccc2[nH]1 [Example 34],> 5.00,,
"O.O.O=C(Nc1c[nH]nc1-c1nc2cc(CN3CCOCC3)ccc2[nH]1)NC1CC1 [dihydrate free base (FB2), 1-cyclopropyl-3-[3-(5-morpholin-4-ylmethyl-1H-benzoimidazol-2-yl)-1H-pyrazol-4-yl]-urea free base dihydrate]",,,do not change
CC(C)(C)NC(=O)Nc1c[nH]nc1-c1nc2cc(CN3CCOCC3)ccc2[nH]1 [Example 45],> 5.00,> 5.00,
CC(C)(CO)C(=O)Nc1c[nH]nc1-c1nc2cc(CN3CCOCC3)ccc2[nH]1 [Example 8],> 5.00,,
O=C(CC1CC1)Nc1c[nH]nc1-c1nc2cc(CN3CCOCC3)ccc2[nH]1 [Example 10],> 6.00,> 6.00,
"Cc1nc2sccn2c1C(=O)Nc1c[nH]nc1-c1nc2cc(CN3CCOCC3)ccc2[nH]1 [Example 2, 6-methyl-imadazol[2,1-b]thiazole-5-carboxylic acid[3-(5-morpholin-4-ylmethyl-1H-benzoimidazol-2-yl)-1H-pyrazol-4-yl]-amide]",> 4.30,,
O=C(Nc1c[nH]nc1-c1nc2cc(CN3CCOCC3)ccc2[nH]1)Nc1c(F)cc(F)cc1F [Example 54],> 6.00,> 6.00,
"COc1cc2nc(-c3n[nH]cc3NC(=O)C3CN(C(C)C)CCO3)[nH]c2cc1OC (racemic) [Example 16, N-[3-(5,6-dimethoxy-1H-benzimidazol-2-yl)-1H-pyrazol-4-yl]-rac-4 isopropyl-2-morpholine carboxamide]",> 5.00,,
COc1cc2nc(-c3n[nH]cc3NC(=O)c3ccoc3CN(C)C)[nH]c2cc1OC [Example 20],> 5.00,> 6.00,
"COc1cc2nc(-c3n[nH]cc3NC(=O)c3cc(Cl)cc(N4CCN(C)CC4)c3)[nH]c2cc1OC [Example 18, 3-chloro-N-(5,6-dimethoxy-1H-benzoimidazol-2-yl)-1H-pyrazol-4-yl-5-(4-methyl-piperazin-1-yl)-benzamide]",,> 6.00,
O=C(Nc1c[nH]nc1-c1nc2cc(CN3CCOCC3)ccc2[nH]1)N1CCc2ccccc21 [Example 29],> 5.00,,
O=C(Nc1c[nH]nc1-c1nc2cc(CN3CCOCC3)ccc2[nH]1)C1CCCO1 (stereo not drawn) [Example 11],> 6.00,> 6.00,
O=C(Nc1c[nH]nc1-c1nc2cc(CN3CCOCC3)ccc2[nH]1)NC1CCCCC1 [Example 51],> 5.00,> 5.00,

# More lines, now with the values ahead:
pIC50 (CDK1/CyclinB),pIC50 (CDK2/CyclinA),change of XRPD pattern on storage [1],Compound
> 6.00,,,CN(C(=O)Nc1c[nH]nc1-c1nc2cc(CN3CCOCC3)ccc2[nH]1)c1ccc(F)cc1F [Example 42]
,> 5.00,,"O=C(Nc1ccc(F)cc1)Nc1c[nH]nc1-c1nc2cc(CN3CCOCC3)ccc2[nH]1 [Example 44, 1-(4-fluorophenyl)-N-[3-(5-morpholin-4-ylmethyl-1H-benzimidazol-2-yl)-1H-pyrazol-4-yl]-urea]"
> 5.00,,,COc1ccc(Cl)cc1NC(=O)Nc1c[nH]nc1-c1nc2cc(CN3CCOCC3)ccc2[nH]1 [Example 56]
> 4.30,,,O=C(NCc1c(F)cccc1F)Nc1c[nH]nc1-c1nc2cc(CN3CCOCC3)ccc2[nH]1 [Example 23]
> 4.30,,,"CN(C(=O)Nc1c[nH]nc1-c1nc2cc(CN3CCOCC3)ccc2[nH]1)c1ccc(F)cc1 [Example 37, 1-(4-fluorophenyl)-1-methyl-3-[3-(5-morpholin-4-ylmethyl-1H-benzimadazol-2-yl)-1H-pyrazol-4-yl]-urea]"
> 5.00,,,CN(C(=O)Nc1c[nH]nc1-c1nc2cc(CN3CCOCC3)ccc2[nH]1)c1cccc(F)c1 [Example 41]
> 6.00,> 6.00,,O=C(Nc1cc(F)ccc1F)Nc1c[nH]nc1-c1nc2cc(CN3CCOCC3)ccc2[nH]1 [Example 47]
> 5.00,,,O=C(Nc1cccc(F)c1)Nc1c[nH]nc1-c1nc2cc(CN3CCOCC3)ccc2[nH]1 [Example 50]
> 4.30,,,CN(C(=O)Nc1c[nH]nc1-c1nc2cc(CN3CCOCC3)ccc2[nH]1)c1ccccc1F [Example 43]
> 5.00,> 6.00,,CN(C)NC(=O)Nc1c[nH]nc1-c1nc2cc(CN3CCOCC3)ccc2[nH]1 [Example 31]
> 5.00,> 5.00,,O=C(Nc1cc(F)cc(F)c1)Nc1c[nH]nc1-c1nc2cc(CN3CCOCC3)ccc2[nH]1 [Example 53]
> 5.00,,,O=C(Nc1ccccc1F)Nc1c[nH]nc1-c1nc2cc(CN3CCOCC3)ccc2[nH]1 [Example 49]
> 5.00,> 6.00,,O=C(Nc1ccc(F)cc1F)Nc1c[nH]nc1-c1nc2cc(CN3CCOCC3)ccc2[nH]1 [Example 46]
